Several values for one entry are separate records, joined by “and”; a condition that tells them apart may be missing. Identical values can stand only once.
How the values were obtained:
[1] = target: K291A KLHDC2^SBD / BRD3^BD2 (Homo sapiens, UniProt Q15059+Q9Y2U9, K291A); assay: ITC, ternary complex K291A KLHDC2^SBD with PROTAC-BRD3^BD2
[2] = target: H346A/R347A KLHDC2^SBD / BRD3^BD2 (Homo sapiens, UniProt Q15059+Q9Y2U9, H346A/R347A); assay: ITC, ternary complex H346A/R347A KLHDC2^SBD with PROTAC-BRD3^BD2
Sequence of H346A/R347A KLHDC2^SBD / BRD3^BD2 (Q9Y2U9 15-361 H346A/R347A): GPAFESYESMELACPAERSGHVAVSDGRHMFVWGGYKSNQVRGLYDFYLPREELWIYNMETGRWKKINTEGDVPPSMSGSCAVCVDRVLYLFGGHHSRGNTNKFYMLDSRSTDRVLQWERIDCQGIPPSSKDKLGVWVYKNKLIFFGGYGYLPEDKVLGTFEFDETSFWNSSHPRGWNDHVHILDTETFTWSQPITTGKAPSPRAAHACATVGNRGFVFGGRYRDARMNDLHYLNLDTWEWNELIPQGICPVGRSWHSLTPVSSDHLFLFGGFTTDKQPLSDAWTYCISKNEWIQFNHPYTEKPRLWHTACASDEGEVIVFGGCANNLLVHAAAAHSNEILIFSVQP
Sequence of H346A/R347A KLHDC2^SBD / BRD3^BD2 (Q15059 306-416, stated change not applied): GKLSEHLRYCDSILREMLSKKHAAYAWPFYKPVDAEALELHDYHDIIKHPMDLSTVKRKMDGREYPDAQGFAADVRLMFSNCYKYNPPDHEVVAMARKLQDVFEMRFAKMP

[3] = target: T1, R56A KLHDC2^SBD (Homo sapiens, UniProt Q9Y2U9, R56A); assay: ITC, binary binding to R56A KLHDC2^SBD
T1 sequence (Q9Y2U9 15-361 R56A): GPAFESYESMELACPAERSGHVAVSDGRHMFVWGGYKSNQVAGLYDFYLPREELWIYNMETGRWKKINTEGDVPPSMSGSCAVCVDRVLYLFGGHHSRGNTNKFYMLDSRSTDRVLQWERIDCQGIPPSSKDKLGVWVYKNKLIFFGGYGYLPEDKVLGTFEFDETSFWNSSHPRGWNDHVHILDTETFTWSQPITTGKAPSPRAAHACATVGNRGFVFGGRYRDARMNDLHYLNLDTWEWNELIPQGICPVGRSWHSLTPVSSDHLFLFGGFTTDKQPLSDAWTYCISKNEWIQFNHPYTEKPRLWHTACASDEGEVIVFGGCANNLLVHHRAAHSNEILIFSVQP

[4] = ITC source data Fig4f, N=1, syringe K291A KLHDC2, cell SJ46421-BRD3BD2
[5] = ITC, syringe K291A KLHDC2, cell compound-BRD3BD2, N=1
[6] = cell: SJ46421-BRD3^BD2, syringe: K291A KLHDC2^SBD, n=1
[7] = ITC source data Fig4f, N=1, syringe H346A/R347A KLHDC2, cell SJ46421-BRD3BD2
[8] = ITC, syringe H346A/R347A KLHDC2, cell compound-BRD3BD2, N=1
[9] = cell: SJ46421-BRD3^BD2, syringe: H346A/R347A KLHDC2^SBD, n=1
[10] = cell: SJ46421, syringe: R56A KLHDC2^SBD

Sequence of K291A KLHDC2^SBD / BRD3^BD2 (Q9Y2U9 15-361 K291A): as the sequence (Q9Y2U9 15-361 H346A/R347A) above, with K277A, A332H, A333R counted along it
Sequence of K291A KLHDC2^SBD / BRD3^BD2 (Q15059 306-416): as the sequence (Q15059 306-416, stated change not applied) above

Cc1sc2c(c1C)C(c1ccc(Cl)cc1)=N[C@@H](CC(=O)N1CCN(CCOc3cccc4ccc(-c5nc(CC(=O)NCC(=O)O)cs5)cc34)CC1)c1nnc(C)n1-2 [SJ46421]
Kd [1]: 25.6 nM
(-)TDS, Rep1 [1, 4]: -5.73
DG, Rep1 [1, 4]: -10.6
DH, Rep1 [1, 4]: -4.87
(-)TDS [1, 5]: -5.73
DG [1, 5]: -10.6
DH [1, 5]: -4.87
cooperativity α ([1]; K291A KLHDC2^SBD, estimated from the binding affinity of SJ46421 to WT KLHDC2): 11.9
ITC -TΔS (ternary) [1, 6]: -5.73 kcal/mol-1
ITC N (ternary) [1, 6]: 0.9
ITC ΔG (ternary) [1, 6]: -10.6 kcal/mol-1
ITC ΔH (ternary) [1, 6]: -4.87 kcal/mol-1
Kd [2]: 50.9 nM
cooperativity α ([2]; H346A/R347A KLHDC2^SBD, estimated from the binding affinity of SJ46421 to WT KLHDC2): 6.0
(-)TDS, Rep1 [2, 7]: -7.83
DG, Rep1 [2, 7]: -10.2
DH, Rep1 [2, 7]: -2.36
(-)TDS [2, 8]: -7.83
DG [2, 8]: -10.2
DH [2, 8]: -2.36
ITC -TΔS (ternary) [2, 9]: -7.83 kcal/mol-1
ITC N (ternary) [2, 9]: 0.9
ITC ΔG (ternary) [2, 9]: -10.2 kcal/mol-1
ITC ΔH (ternary) [2, 9]: -2.36 kcal/mol-1
Kd ([3]; ITC Kd, cell: SJ46421, syringe: R56A KLHDC2^SBD): 463 ± 15 nM
Kd ([3]; Kd, Rep1/Rep2, ITC source data Fig4f, syringe R56A KLHDC2, cell SJ46421): 462 nM and 464 nM
ITC -TΔS [3, 10]: -6.66 +/- 0.25 kcal/mol-1
ITC N [3, 10]: 1.0
ITC ΔG [3, 10]: -8.85 +/- 0.05 kcal/mol-1
ITC ΔH [3, 10]: -1.82 +/- 0.05 kcal/mol-1
